{"source": "patent EP1675855B1", "about": "“4-AMINO-QUINOLINE OUINOLIZIDINYL-AND QUINOLIZIDINYLALKYL-DERIVATIVES WITH ANTIMALARIAL ACTIVITY” (Need Pharmaceuticals S.r.l., priority 2003, dated 2005)", "key": {"[1]": {"test_system": "chloroquine-sensitive P. falciparum strains", "assay": "microbe, parasite or virus in culture", "conditions": "Plasmodium falciparum", "procedure": "(§1) The compounds of the invention were tested in vitro on chloroquine-sensitive and chloroquine-resistant strains of P. falciparum. […] Parasites' growth was evaluated with a colorimetric assay for pLDH at 72 hours."}, "[2]": {"test_system": "chloroquine-resistant P. falciparum strains", "assay": "microbe, parasite or virus in culture", "conditions": "Plasmodium falciparum", "procedure": "as §1"}}, "data": [{"smiles": "CCN(CC)CCCC(C)Nc1ccnc2cc(Cl)ccc12", "note": "(centres unmarked) [chloroquine, 7-chloro-4-(4-diethylamino-1-methylbutylamino)quinoline]", "values": [{"measurement": "IC50", "setting": "[1]", "result": "27.8 ± 9", "unit": "nM"}, {"measurement": "IC50", "setting": "[2]", "result": "150 to 300", "unit": "nM"}]}]}
